Legend:
[1] = Ampicillin blood level after administration with galenical extract by stomach probe (Experimental method B); format: in vivo; settings: rat
Protocol: Rats weighing 200 to 230 g under anesthesia with ether were intubated with polyethylene tube (PE-10) at the femoral artery with ligation. The other end of PE-10 was passed subcutaneously to be led to the cervicodorsal part, at which it was drawn out of the skin and fixed with capping. After restoration of the vulnus at the operated portion (about 24 hours), each rat was provided for the experiment.
The test microorganism used was Bacillus subtilis, and the assay was performed by the paper disc method according to The Japan Antibiotic Drug Standards.

[2] = Ampicillin blood level after suppository with saponin A, B or C (suppository tests); format: in vivo; settings: rat
Protocol: The effectiveness of the saponins A, B and C when they were formulated into suppositories was tested in a method similar to the above Experimental method A.
Thus, rats weighing 180 to 220 g were anesthetized with 30 mg/kg of pentobarbital sodium and fixed by supination on a water bed made of a metal through which water regulated at a constant temperature of 39° C. was circulated. A suppository in a proportion of 1 g/kg of body weight of the rat was inserted through the anus and pushed by a glass bar until it reached the connecting point of the pubes.
The suppositories tested had the following compositions:
Saponin A, B or C: 0.5-2 mg/kg-rat, and
Vehicle*: remainder for giving 1 mg of suppository/kg-rat.
*Witepsol® produced by Dynamit Novel A.G.
Thus, the assay was performed by the paper disc method according to The Japan Antibiotic Drug Standards using Bacillus subtilis as the test microorganism.

[3] = Ampicillin blood level after injection with galenical extract or isolated saponin into rat duodenal loop (Experimental method A); settings: in vivo
Protocol: Rats weighing 180 to 220 g were anesthetized with 30 mg/kg of pentobarbital sodium and fixed by supination on a water bed made of a metal through which water regulated at a constant temperature of 39° C. was circulated. A duodenal loop of 10 cm length was prepared in a conventional manner with the point 1 cm under the pyloric part of the stomach as the starting point. […] The rats were bled from jugular veins 10, 20, 40, 60, 90, 120, 180 and 240 minutes after injection and activity concentration in the blood in each case was measured according to biological assay.
That is, according to The Japan Antibiotic Drug Standards, using Bacillus subtilis as test microorganism, cultivation assay was performed by the paper disc method at 37° C. for 15 to 20 hours.
The composition of the solution had the following composition:
Galenical extract: 2 mg/ml-20 mg/ml
(§1) Experimental method A was repeated except that saponins A, B and C were respectively used in a concentration of 5 mg/liter in place of the galenical extract in a solution to be administered.

duodenum mucosa = assay: Observation of the duodenum employed in the experiment for mucosa damage; format: in vivo; settings: rat duodenum employed in the experiment
Protocol: as §1
Examples according to the above experimental method are shown in the following Examples 6, 7 and 8. […] This may be ascribed to low acute toxicity of the drug absorption promoter of the present invention, as can readily be understood from the fact that the galenicals used in the present invention have been widely accepted as herb medicines or the like.

For `CC1(C)S[C@@H]2[C@H](NC(=O)[C@H](N)c3ccccc3)C(=O)N2[C@H]1C(=O)O` [ampicillin sodium], the “Concentration in Blood, 10 min. (- Control)” value ([1]; in vivo, po, 25 mg/kg, 10 min) was 0.3 μg titer/ml, the “Concentration in Blood, 20 min. (- Control)” value ([1]; in vivo, po, 25 mg/kg, 20 min) was 0.6 μg titer/ml and the “Concentration in Blood, 40 min. (- Control)” value ([1]; in vivo, po, 25 mg/kg, 40 min) was 1.3 μg titer/ml. The “Concentration in Blood, 60 min. (- Control)” value ([1]; in vivo, po, 25 mg/kg, 1 h) was 0.5 μg titer/ml, the concentration at 10 min ([1]; in vivo, po, 25 mg/kg, Concentration in Blood, 10 min. (- Control)) was 400 ng/mL and the concentration at 20 min ([1]; in vivo, po, 25 mg/kg, Concentration in Blood, 20 min. (- Control)) was 800 ng/mL. The concentration at 40 min ([1]; in vivo, po, 25 mg/kg, Concentration in Blood, 40 min. (- Control)) was 1200 ng/mL, the concentration at 1 h ([1]; in vivo, po, 25 mg/kg, Concentration in Blood, 60 min. (- Control)) was 800 ng/mL and the concentration at […] ([1]; in vivo, po, 25 mg/kg, Concentration in Blood, 90 min. (- Control)) was 300 ng/mL. For the same molecule, the “Concentration in Blood, 90 min. (- Control)” value ([1]; stomach probe, ampicillin sodium without extract (Control), 90 min, tr.: trace) was “tr”, the “Concentration in Blood, 120 min. (- Control)” value ([1]; stomach probe, ampicillin sodium without extract (Control), 120 min, tr.: trace) was “tr” and the “Concentration in Blood, 180 min. (- Control)” value ([1]; stomach probe, ampicillin sodium without extract (Control), 180 min, tr.: trace) was “tr”. For the same molecule, the “Concentration in Blood, 240 min. (- Control)” value ([1]; stomach probe, ampicillin sodium without extract (Control), 240 min, tr.: trace) was “tr”, the concentration at 5 min ([2]; in vivo, 50 mg/kg) was 3120 ± 1660 ng/mL and the concentration at 10 min ([2]; in vivo, 50 mg/kg) was 3980 ± 1890 ng/mL. The concentration at 35 min ([2]; in vivo, 50 mg/kg) was 1910 ± 890 ng/mL, the concentration at 1 h ([2]; in vivo, 50 mg/kg) was 930 ± 540 ng/mL and the “Concentration in Blood, 100 min.” value ([2]; suppository, ampicillin sodium 50 mg/kg, 100 min (Table 8A, upper part)) was “trace”. The “Concentration in Blood, 20 min. (Control)” value ([3]; 20 min) was 0.89 ± 0.07 μg titer/ml, the “Concentration in Blood, 40 min. (Control)” value ([3]; 40 min) was 1.1 μg titer/ml and the “Concentration in Blood, 240 min. (Control)” value ([3]; 4 h) was 0.5 μg titer/ml. The concentration at 10 min ([3]; Concentration in Blood, 10 min. (Control)) was 600 ng/mL, the concentration at 40 min ([3]; Concentration in Blood, 40 min. (Control)) was 1100 ng/mL and the concentration at 1 h ([3]; Concentration in Blood, 60 min. (Control)) was 1200 ng/mL. It also gave a concentration at 3 h ([3]; Concentration in Blood, 180 min. (Control)) of 500 ng/mL and a concentration at 4 h ([3]; Concentration in Blood, 240 min. (Control)) of 500 ng/mL.
For `C[C@@H]1O[C@@H](O[C@H]2[C@H](O[C@H]3CC[C@@]4(C)[C@@H](CC[C@]5(C)[C@@H]4CC=C4[C@@H]6CC(C)(C)CC[C@]6(C(=O)O)CC[C@]45C)[C@]3(C)CO)OC[C@H](O)[C@@H]2O)[C@H](O)[C@H](O[C@@H]2OC[C@H](O)[C@H](O)[C@H]2O)[C@H]1O` [Saponin A, 3-O-[α-L-arabinopyranosyl-(1→3)-α-L-rhamnopyranosyl-(1→2) -α-L-arabinopyranosyl]-hederagenin], the “damage of mucosa or abnormality such as hemorrhagic spot of the duodenum” value (shortened to “damage of mucosa or abnormality such”) (duodenum mucosa) was “no damage of mucosa (e.g. mucosa ablation) or abnormality such as hemorrhagic spot”.
With `C[C@@H]1O[C@@H](O[C@H]2[C@H](O[C@H]3CC[C@@]4(C)[C@@H](CC[C@]5(C)[C@@H]4CC=C4[C@@H]6CC(C)(C)CC[C@]6(C(=O)O)CC[C@]45C)[C@]3(C)CO)OC[C@H](O)[C@@H]2O)[C@H](O)[C@H](O[C@@H]2O[C@@H](CO)[C@H](O)[C@H]2O)[C@H]1O` [Saponin C, 3-O-[α-L-arabinofuranosyl-(1→3)-α-L-rhamnopyranosyl-(1→2)-α-L-arabinopyranosyl]-hederagenin] the “damage of mucosa or abnormality such” value (duodenum mucosa) was “no damage of mucosa (e.g. mucosa ablation) or abnormality such as hemorrhagic spot”.
With `C[C@@H]1O[C@@H](O[C@H]2[C@H](O[C@H]3CC[C@@]4(C)[C@@H](CC[C@]5(C)[C@@H]4CC=C4[C@@H]6CC(C)(C)CC[C@]6(C(=O)O)CC[C@]45C)[C@]3(C)CO)OC[C@H](O)[C@@H]2O)[C@H](O)[C@H](O[C@@H]2OC[C@@H](O)[C@H](O)[C@H]2O)[C@H]1O` [Saponin B, 3-O-[β-D-xylopyranosyl-(1→3)-α-L-rhamnopyranosyl-(1→2)-α-L-arabinopyranosyl]-hederagenin] the “damage of mucosa or abnormality such” value (duodenum mucosa) was “no damage of mucosa (e.g. mucosa ablation) or abnormality such as hemorrhagic spot”.
